{
  "source": "patent US5571833A",
  "about": "“Tryptamine analogues, their synthesis and their use as 5-HT1 -like or 5-HT2 receptor agonists” (SmithKline Beecham plc, priority 1991, dated 1996)",
  "key": {"[1]": {"molecular_target": "T1, 5-HT1-like receptor (dog saphenous vein) (Canis lupus familiaris, UniProt P79250)", "T1 construct": "Helicoids of dog saphenous vein were set up; from tissue; host or cells: dog saphenous vein (helicoids)", "T1 sequence (P79250 whole entry)": "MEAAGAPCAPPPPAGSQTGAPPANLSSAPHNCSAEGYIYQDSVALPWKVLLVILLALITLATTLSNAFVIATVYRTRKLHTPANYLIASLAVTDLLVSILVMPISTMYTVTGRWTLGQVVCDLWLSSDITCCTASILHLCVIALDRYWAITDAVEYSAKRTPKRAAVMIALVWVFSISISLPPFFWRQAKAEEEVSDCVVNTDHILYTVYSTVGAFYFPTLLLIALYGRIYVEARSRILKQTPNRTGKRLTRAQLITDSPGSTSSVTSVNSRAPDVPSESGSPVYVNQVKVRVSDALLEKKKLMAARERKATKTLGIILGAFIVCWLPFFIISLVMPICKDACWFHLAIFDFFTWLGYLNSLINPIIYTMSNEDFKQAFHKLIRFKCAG", "assay": "5-HT1-Like Receptor Screen, Dog Saphenous Vein (contraction of helicoids)", "assay_type": "cell-based", "protocol": "5-HT1 -Like Receptor Screen\nHelicoids of dog saphenous vein were set up at 37° C. in modified Krebs solution at a resting force of 10 mN. The solution also contained 1 μmol/l each of ketanserin, prazosin, atropine and mepyramine, 6 μmol/l cocaine and 200 μmol/l ascorbate. Nearly […] contractions were measured with force transducers on a polygraph. The tissues were exposed twice to 5-hydroxytryptamine (5-HT) 2 μmol/l followed by washes. A cumulative concentration-effect curve to the test compound was determined, followed by a curve to 5-HT in the presence of the highest used concentration of test compound. Contractions caused by the test compound were compared with those caused by 5-HT. The intrinsic activity of the test compound was calculated as the ratio of the maximum test compound-induced effect over the effect caused by 2 μmol/l 5-HT. The EC50 of the test compound was estimated from the corresponding effect curve. When appropriate equilibrium dissociation constants Kp were estimated by the method of Marano & Kaumann (1976, J. Pharmacol. Exp. Ther. 198, 518-525)."}, "[2]": {"molecular_target": "T2, rabbit basilar artery (5-HT1-like receptor) (Oryctolagus cuniculus, UniProt P49144)", "T2 construct": "from tissue; host or cells: rabbit basilar artery, endothelium removed (ring segments)", "T2 sequence (P49144 whole entry)": "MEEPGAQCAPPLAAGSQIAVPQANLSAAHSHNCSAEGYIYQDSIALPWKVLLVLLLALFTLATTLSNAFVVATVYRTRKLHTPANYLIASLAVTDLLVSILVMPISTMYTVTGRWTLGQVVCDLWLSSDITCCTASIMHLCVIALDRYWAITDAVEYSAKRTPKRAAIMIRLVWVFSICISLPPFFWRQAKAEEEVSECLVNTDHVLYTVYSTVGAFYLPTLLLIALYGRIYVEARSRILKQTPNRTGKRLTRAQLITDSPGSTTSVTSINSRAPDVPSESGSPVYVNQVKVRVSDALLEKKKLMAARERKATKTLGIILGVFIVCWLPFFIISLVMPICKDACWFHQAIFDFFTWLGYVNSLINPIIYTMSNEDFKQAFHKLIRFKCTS", "assay": "Rabbit Basilar Artery (isometric tension of isolated ring segments)", "assay_type": "cell-based", "protocol": "Experiments were performed in intracranial arteries from rabbit isolated basilar artery in a similar method to one described previously (Parsons and Whalley, 1989. Eur J Pharmacol 174, 189-196.).\nIn brief, rabbits were killed by overdose with anaesthetic (sodium pentobarbitone). The whole brain was quickly removed and immersed in ice cold modified Kreb's solution and the basilar artery removed with the aid of a dissecting microscope. The Krebs solution was of the following composition (mM) Na^+ (120); K^+ (5); Ca^2+ (2.25); Mg^2+ (0.5); Cl^- (98.5); SO4^2^- (1); EDTA (0.04), equilibrated with 95% O2 /5% CO2. The endothelium was removed by a gentle rubbing of the lumen with a fine metal wire. Arteries were then cut into ring segments (ca 4-5 mm wide) and set up for recording of isometric tension in 50 ml tissue baths in modified Krebs solution with the additional supplement of (mM); […] (20); fumarate (10); pyruvate (5); L-glutamate (5) and glucose (10). The arteries were then placed under a resting force of 3-4 mN maintained at 37° C. and the solution bubbled with 95% O2 /5% CO2.\nAfter tests for initial reactivity with 90 mM KCl depolarising solution and for lack of acetylcholine-induced relaxation of 5-HT ([…]) precontraction, cumulative concentration-effect curves ([…]) to 5-HT were constructed in the presence of ascorbate […], cocaine […], indomethacin […], ketanserin […] and prazosin […].\nFollowing a 45-60 min wash period, cumulative concentration-effect curves to the test compounds or 5-HT (as a time match control) were constructed in the presence of ascorbate, indomethacin, cocaine, ketanserin and prazosin."}},
  "note": "Where a name gives a salt, the structure may show the parent alone.",
  "data": [
    {"smiles": "COc1ccc2[nH]cc(CCN(C)C)c2c1Cl", "note": "[6(i), 3-(2-Dimethylaminoethyl)-4-chloro-5-methoxyindole fumarate]", "values": [
      {"measurement": "EC50", "setting": "[1]", "value": "200 to 15000", "unit": "nM"},
      {"measurement": "EC50", "setting": "[2]", "value": "170 to 1100", "unit": "nM"}
    ]},
    {"smiles": "COc1ccc2[nH]cc(CCN)c2c1Cl", "note": "[Example 6(ii), 3-(2-aminoethyl)-4-chloro-5-methoxyindole fumarate]", "values": [
      {"measurement": "EC50", "setting": "[1]", "value": "200 to 15000", "unit": "nM"}
    ]},
    {"smiles": "CN(C)CCc1c[nH]c2ccc(OCC(C)(C)C)c(Cl)c12", "note": "[Example 22, 3-(2-(Dimethylamino)ethyl)-4-chloro-5-neopentyloxy indole oxalate]", "values": [
      {"measurement": "EC50", "setting": "[2]", "value": "170 to 1100", "unit": "nM"}
    ]},
    {"smiles": "CCCCOc1ccc2[nH]cc(CCN(C)C)c2c1Cl", "note": "[Example 11, 3-(2-Dimethylaminoethyl)-4-chloro-5-n-butyloxyindole hemifumarate]", "values": [
      {"measurement": "EC50", "setting": "[1]", "value": "200 to 15000", "unit": "nM"},
      {"measurement": "EC50", "setting": "[2]", "value": "170 to 1100", "unit": "nM"}
    ]},
    {"smiles": "CN(C)CCc1c[nH]c2ccc(O)c(Cl)c12", "note": "[Example 5, 3-(2-Dimethylaminoethyl)-4-chloro-5-hydroxyindole oxalate]", "values": [
      {"measurement": "EC50", "setting": "[1]", "value": "200 to 15000", "unit": "nM"},
      {"measurement": "EC50", "setting": "[2]", "value": "170 to 1100", "unit": "nM"}
    ]},
    {"smiles": "COc1ccc2[nH]cc(CCN(C)C)c2c1Br", "note": "[Example 7, 3-(2-Dimethylaminoethyl)-4-bromo-5-methoxyindole hemifumarate]", "values": [
      {"measurement": "EC50", "setting": "[1]", "value": "200 to 15000", "unit": "nM"}
    ]},
    {"smiles": "NCCc1c[nH]c2ccc(OCc3ccccc3)c(Cl)c12", "note": "[Example 1, 3-(2-amino-ethyl)-4-chloro-5-benzyloxyindole hydrochloride]", "values": [
      {"measurement": "EC50", "setting": "[1]", "value": "200 to 15000", "unit": "nM"}
    ]},
    {"smiles": "CCCOc1ccc2[nH]cc(CCN(C)C)c2c1Br", "note": "[Example 14, 3-(2-Dimethylaminoethyl)-4-bromo-5-n-propoxyindole hemifumarate]", "values": [
      {"measurement": "EC50", "setting": "[1]", "value": "200 to 15000", "unit": "nM"},
      {"measurement": "EC50", "setting": "[2]", "value": "170 to 1100", "unit": "nM"}
    ]},
    {"smiles": "CN(C)CCc1c[nH]c2ccc(OCc3ccccc3)c(Cl)c12", "note": "[Example 4, 3-(2-Dimethylaminoethyl)-4-chloro-5-benzyloxyindole hydrochloride]", "values": [
      {"measurement": "EC50", "setting": "[2]", "value": "170 to 1100", "unit": "nM"}
    ]},
    {"smiles": "CCCOc1ccc2[nH]cc(CCN)c2c1Cl", "note": "[Example 3(ii), 3-(2-aminoethyl)-4-chloro-5-n-propyloxyindole fumarate]", "values": [
      {"measurement": "EC50", "setting": "[1]", "value": "200 to 15000", "unit": "nM"}
    ]},
    {"smiles": "CCCOc1ccc2[nH]cc(CCN)c2c1Br", "note": "[Example 16, 3-(2-Aminoethyl)-4-bromo-5-n-propoxyindole oxalate]", "values": [
      {"measurement": "EC50", "setting": "[1]", "value": "200 to 15000", "unit": "nM"}
    ]},
    {"smiles": "CCCOc1ccc2[nH]cc(CCN)c2c1C", "note": "[Example 18b, 3-(2-aminoethyl)-4-methyl-5-n-propyloxyindole oxalate]", "values": [
      {"measurement": "EC50", "setting": "[2]", "value": "170 to 1100", "unit": "nM"}
    ]},
    {"smiles": "CCCNCCc1c[nH]c2ccc(OC)c(Cl)c12", "note": "[Example 8, 3-(2-n-Propylaminoethyl)-4-chloro-5-methoxyindole fumarate]", "values": [
      {"measurement": "EC50", "setting": "[1]", "value": "200 to 15000", "unit": "nM"}
    ]},
    {"smiles": "CCCOc1ccc2[nH]cc(CCNC)c2c1Cl", "note": "[Example 13, 3-(2-Methylaminoethyl)-4-chloro-5-n-propoxyindole hemifumarate]", "values": [
      {"measurement": "EC50", "setting": "[1]", "value": "200 to 15000", "unit": "nM"}
    ]},
    {"smiles": "CNCCc1c[nH]c2ccc(OC)c(Cl)c12", "note": "[Example 9, 3-(2-Methylaminoethyl)-4-chloro-5-methoxyindole hemifumarate]", "values": [
      {"measurement": "EC50", "setting": "[1]", "value": "200 to 15000", "unit": "nM"}
    ]},
    {"smiles": "CCCOc1ccc2[nH]cc(CCN(C)C)c2c1Cl", "note": "[3(i), 3-(2-Dimethylaminoethyl)-4-chloro-5-n-propyloxy-indole fumarate]", "values": [
      {"measurement": "EC50", "setting": "[1]", "value": "200 to 15000", "unit": "nM"},
      {"measurement": "EC50", "setting": "[2]", "value": "170 to 1100", "unit": "nM"}
    ]},
    {"smiles": "CCCOc1ccc2[nH]cc(CCN(C)CC)c2c1Cl", "note": "[Example 19, 3-(2-(N-methyl-N-ethylamino)ethyl)-4-chloro-5-n-propyloxyindole oxalate]", "values": [
      {"measurement": "EC50", "setting": "[2]", "value": "170 to 1100", "unit": "nM"}
    ]},
    {"smiles": "CC(C)Oc1ccc2[nH]cc(CCN)c2c1Cl", "note": "[Example 15, 3-(2-Aminoethyl)-4-chloro-5-iso-propoxyindole fumarate]", "values": [
      {"measurement": "EC50", "setting": "[1]", "value": "200 to 15000", "unit": "nM"}
    ]},
    {"smiles": "CCCOc1ccc2[nH]cc(CCN(C)C)c2c1I", "note": "[Example 20, 3-(2-(Dimethylamino)ethyl)-4-iodo-5-n-propyloxy indole oxalate]", "values": [
      {"measurement": "EC50", "setting": "[2]", "value": "170 to 1100", "unit": "nM"}
    ]},
    {"smiles": "NCCc1c[nH]c2ccc(O)c(Cl)c12", "note": "[Example 2, 3-(2-Aminoethyl)-4-chloro-5-hydroxyindole fumarate]", "values": [
      {"measurement": "EC50", "setting": "[1]", "value": "200 to 15000", "unit": "nM"},
      {"measurement": "EC50", "setting": "[2]", "value": "170 to 1100", "unit": "nM"}
    ]},
    {"smiles": "CC(C)Oc1ccc2[nH]cc(CCN(C)C)c2c1Cl", "note": "[Example 17, 3-(2-Dimethylaminoethyl)-4-chloro-5-isopropoxyindole oxalate]", "values": [
      {"measurement": "EC50", "setting": "[1]", "value": "200 to 15000", "unit": "nM"}
    ]}
  ]
}
